# Reference: patent publication US11767289B2, “Methods and compositions for pest control” (VMI Foundation, priority 2010, dated 2023)
# Experiment: Solvent for extracting tyramides from dissected tissue
# Type: physicochemical
# Settings: extraction of dissected tissue
# Method: Mature male […] (winged male sexuals) were used in all experiments. Maturity could only be determined upon dissection and determination of whether or not the male's testes were degenerated. This is the key indicator of maturity. See Ball and Vinson, Int. J. Insect Morphol. Embryol. 13:283-294 (1984) for a description and figure of the fire ant male genitalia. Males were discarded if their testes were not degenerated. Dissection of the male reproductive system was carried out in a drop of water. The entire system included pairs of degenerated testes, seminal vesicle, accessory glands, and the single external genitalia. After dissection of the entire system the three sections were further dissected: A) degenerated testes and seminal vesicle; B) accessory glands; and C) external genitalia. […]
compound,measurement,value
"CC(=O)NCCc1ccc(O)cc1 [Compound 1, acetyl tyramide]",suitability of methylene chloride as solvent,poor solvent
